Assay results published in patent US9517223B2, “Methods to treat neurodegenerative diseases” (Children's Medical Center Corporation, priority 2012, dated 2016).

Assays:
[1] = system: ALS patient-derived motor neurons (39b); test: Extracellular MEA recording of spontaneous firing, SOD1 A4V ALS motor neurons; conditions: retigabine 10 μM; two additional MEAs from separate differentiations
[2] = mice, 10 mg/kg IP injection for several weeks; cited from earlier work

In the case of `CCOC(=O)Nc1ccc(NCc2ccc(F)cc2)cc1N` [Retigabine], the “percentage of active neurons blocked (spontaneous firing)” value [1] is listed as 100% and the side effects [2] is listed as “without apparent side effects”.
